One series addresses CYP2C9 (Homo sapiens, UniProt P11712). As to the kind of experiment: CYP2C9 inhibition by XueBiJing compounds, cDNA-expressed enzyme [MFC→HFC]. Type of series: in vitro ADME.
The target in another series is CYP2C19 (Homo sapiens, UniProt P33261). As to the kind of experiment: CYP2C19 inhibition by XueBiJing compounds, cDNA-expressed enzyme [CEC→CHC]. Type of series: in vitro ADME.
Another series addresses T1, UGT1A6 (Homo sapiens, UniProt P19224).
T1 sequence (P19224 27-532): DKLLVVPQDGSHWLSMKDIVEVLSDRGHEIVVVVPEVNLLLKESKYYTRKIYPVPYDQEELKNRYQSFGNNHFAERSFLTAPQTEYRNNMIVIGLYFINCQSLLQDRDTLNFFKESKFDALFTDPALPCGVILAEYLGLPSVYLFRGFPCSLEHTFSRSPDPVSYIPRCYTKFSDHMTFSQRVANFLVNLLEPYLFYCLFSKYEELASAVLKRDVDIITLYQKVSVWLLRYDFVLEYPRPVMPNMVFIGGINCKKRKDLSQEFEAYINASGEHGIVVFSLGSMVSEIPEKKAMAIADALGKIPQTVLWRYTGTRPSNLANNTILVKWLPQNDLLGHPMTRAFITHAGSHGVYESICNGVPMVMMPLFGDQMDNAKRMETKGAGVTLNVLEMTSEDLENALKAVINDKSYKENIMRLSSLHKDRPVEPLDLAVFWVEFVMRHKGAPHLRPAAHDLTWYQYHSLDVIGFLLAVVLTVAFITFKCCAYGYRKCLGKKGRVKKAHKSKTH
As to the kind of experiment: UGT1A6 inhibition by XueBiJing compounds, cDNA-expressed enzyme [4-MU→4-MUG]. Type of series: in vitro ADME.

The target in another series is T2, UGT1A9 (Homo sapiens, UniProt O60656).
T2 sequence (O60656 26-530): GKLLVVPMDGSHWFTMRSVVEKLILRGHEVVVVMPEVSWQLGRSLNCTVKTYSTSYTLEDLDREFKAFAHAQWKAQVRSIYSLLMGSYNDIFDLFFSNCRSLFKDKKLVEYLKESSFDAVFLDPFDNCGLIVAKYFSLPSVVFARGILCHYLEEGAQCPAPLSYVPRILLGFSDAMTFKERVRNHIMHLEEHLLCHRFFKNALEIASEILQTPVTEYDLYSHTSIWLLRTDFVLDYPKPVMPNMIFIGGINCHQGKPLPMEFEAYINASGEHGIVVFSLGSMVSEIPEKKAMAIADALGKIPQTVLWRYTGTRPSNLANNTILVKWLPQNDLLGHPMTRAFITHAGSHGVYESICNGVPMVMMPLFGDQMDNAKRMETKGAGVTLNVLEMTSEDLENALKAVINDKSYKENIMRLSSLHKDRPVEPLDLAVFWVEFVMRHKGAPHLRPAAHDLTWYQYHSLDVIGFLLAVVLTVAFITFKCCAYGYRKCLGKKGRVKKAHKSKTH
In words: UGT1A9 inhibition by XueBiJing compounds, cDNA-expressed enzyme [4-MU→4-MUG]. Type of series: in vitro ADME.

The target of another series is OATP1B1 (Homo sapiens, UniProt Q9Y6L6). As to the kind of experiment: OATP1B1 inhibition by XueBiJing compounds, transfected HEK293 cells [E217βG]. Type of series: in vitro ADME.
OATP1B1, sequence (Q9Y6L6 whole entry): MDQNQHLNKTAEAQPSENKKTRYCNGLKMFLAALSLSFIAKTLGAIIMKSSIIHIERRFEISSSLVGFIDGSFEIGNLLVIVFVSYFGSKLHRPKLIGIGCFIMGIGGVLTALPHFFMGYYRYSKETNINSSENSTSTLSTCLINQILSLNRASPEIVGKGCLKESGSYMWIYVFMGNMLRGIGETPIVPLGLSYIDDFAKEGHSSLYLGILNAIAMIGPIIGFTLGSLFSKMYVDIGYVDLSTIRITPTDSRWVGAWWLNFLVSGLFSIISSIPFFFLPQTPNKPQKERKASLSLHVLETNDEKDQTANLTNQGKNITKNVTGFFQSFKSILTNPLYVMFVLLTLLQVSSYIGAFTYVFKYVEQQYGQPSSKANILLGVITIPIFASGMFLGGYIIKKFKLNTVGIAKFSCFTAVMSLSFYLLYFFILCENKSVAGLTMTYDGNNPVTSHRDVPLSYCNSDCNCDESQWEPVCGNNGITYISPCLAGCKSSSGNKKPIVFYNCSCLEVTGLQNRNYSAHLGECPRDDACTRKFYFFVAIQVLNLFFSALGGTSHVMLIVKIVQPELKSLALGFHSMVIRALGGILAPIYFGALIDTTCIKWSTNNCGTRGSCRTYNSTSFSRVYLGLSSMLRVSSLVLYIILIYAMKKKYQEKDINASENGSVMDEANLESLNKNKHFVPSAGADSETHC
Another series addresses T3, OAT3 (Homo sapiens, UniProt Q8TCC7).
T3 sequence (Q8TCC7 1-542): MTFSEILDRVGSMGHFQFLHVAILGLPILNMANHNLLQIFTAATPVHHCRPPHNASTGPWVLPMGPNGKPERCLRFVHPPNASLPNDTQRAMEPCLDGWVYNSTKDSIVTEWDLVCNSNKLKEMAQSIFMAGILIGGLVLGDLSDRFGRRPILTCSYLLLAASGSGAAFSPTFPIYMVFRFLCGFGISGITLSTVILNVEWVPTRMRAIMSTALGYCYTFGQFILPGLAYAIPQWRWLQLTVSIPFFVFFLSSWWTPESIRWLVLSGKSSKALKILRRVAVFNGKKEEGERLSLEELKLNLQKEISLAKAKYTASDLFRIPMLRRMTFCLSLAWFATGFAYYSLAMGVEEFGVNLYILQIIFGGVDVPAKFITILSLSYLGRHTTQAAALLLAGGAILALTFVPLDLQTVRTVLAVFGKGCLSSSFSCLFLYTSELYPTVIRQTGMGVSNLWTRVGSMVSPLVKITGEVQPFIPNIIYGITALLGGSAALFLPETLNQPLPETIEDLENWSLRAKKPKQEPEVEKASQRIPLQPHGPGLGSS
Type of series: in vitro ADME.

The test system of the next series is CYP2B6. As to the kind of experiment: CYP2B6 induction by XueBiJing compounds in cryopreserved human hepatocytes. The following applies: higher concentrations; range over the named compounds and enzymes. Type of series: in vitro ADME.
The target of a further series is T4, OATP1B3 (Homo sapiens, UniProt Q9NPD5).
T4 sequence (Q9NPD5 1-702): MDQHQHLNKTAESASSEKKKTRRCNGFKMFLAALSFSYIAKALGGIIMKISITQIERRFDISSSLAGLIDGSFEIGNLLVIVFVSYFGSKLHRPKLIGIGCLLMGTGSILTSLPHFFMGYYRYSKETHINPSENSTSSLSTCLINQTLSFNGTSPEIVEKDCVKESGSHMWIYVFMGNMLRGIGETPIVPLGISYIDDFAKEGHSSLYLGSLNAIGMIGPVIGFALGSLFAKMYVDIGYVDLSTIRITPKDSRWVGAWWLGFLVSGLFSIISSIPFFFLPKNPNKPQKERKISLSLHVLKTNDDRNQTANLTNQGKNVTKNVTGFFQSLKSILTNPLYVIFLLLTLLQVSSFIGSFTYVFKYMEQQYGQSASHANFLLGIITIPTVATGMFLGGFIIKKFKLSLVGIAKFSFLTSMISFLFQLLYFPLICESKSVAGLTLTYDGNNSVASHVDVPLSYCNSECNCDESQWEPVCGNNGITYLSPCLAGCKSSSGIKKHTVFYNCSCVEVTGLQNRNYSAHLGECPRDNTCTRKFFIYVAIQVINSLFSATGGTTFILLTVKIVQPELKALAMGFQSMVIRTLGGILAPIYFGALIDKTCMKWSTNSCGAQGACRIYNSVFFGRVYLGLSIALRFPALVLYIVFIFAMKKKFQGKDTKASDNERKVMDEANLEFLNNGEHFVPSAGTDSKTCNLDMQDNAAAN
As to the kind of experiment: in vitro. Type of series: in vitro ADME.

For series [1] the following is noted: cited from earlier work.
Series [2] concerns P450 enzymes, UGTs, SULTs, OATP1B1/1B3, OAT1/3, OCT2, MATE1/2-K, MDR1, BCRP. The following applies: cited from earlier work.
The conditions of series [3]: XueBiJing compounds, cited from earlier work.
For series [4] the following is noted: XueBiJing compounds; cited from earlier work.
Setting [5] is: human, XueBiJing 100 mL via 75-min intravenous infusion.

Molecules are shown by their SMILES. Entries after “also recorded” stand apart in the source; their conditions may differ.

CYP2C19, sequence (P33261 whole entry): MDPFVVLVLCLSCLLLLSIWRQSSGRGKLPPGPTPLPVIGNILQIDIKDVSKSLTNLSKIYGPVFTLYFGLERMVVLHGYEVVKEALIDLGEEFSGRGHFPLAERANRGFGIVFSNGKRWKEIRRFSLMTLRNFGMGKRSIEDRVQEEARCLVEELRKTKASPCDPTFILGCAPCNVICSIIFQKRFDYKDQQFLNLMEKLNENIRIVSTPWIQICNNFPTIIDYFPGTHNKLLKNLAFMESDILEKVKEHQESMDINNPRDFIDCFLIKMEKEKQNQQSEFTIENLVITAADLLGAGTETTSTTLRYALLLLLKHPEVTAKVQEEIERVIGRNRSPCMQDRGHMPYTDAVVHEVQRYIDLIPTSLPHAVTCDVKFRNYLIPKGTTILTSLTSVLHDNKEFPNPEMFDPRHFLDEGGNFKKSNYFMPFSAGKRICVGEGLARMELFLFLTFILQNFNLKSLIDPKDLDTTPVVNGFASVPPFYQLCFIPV
CYP2C9, sequence (P11712 whole entry): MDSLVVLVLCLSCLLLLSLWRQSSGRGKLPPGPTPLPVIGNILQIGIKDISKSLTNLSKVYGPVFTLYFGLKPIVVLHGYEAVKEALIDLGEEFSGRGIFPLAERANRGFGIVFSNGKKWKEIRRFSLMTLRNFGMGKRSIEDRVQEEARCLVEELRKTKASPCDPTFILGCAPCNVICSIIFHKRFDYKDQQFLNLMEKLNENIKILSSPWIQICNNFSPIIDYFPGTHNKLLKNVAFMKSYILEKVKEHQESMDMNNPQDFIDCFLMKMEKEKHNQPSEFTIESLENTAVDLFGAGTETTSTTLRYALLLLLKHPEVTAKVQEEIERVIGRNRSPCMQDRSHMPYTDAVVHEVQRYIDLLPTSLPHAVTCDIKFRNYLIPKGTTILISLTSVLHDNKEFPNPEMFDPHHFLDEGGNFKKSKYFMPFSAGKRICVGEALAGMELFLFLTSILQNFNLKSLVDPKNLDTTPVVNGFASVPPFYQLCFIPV

For the compound `O=C(/C=C/c1ccc(O)c2c1[C@H](C(=O)O[C@H](Cc1ccc(O)c(O)c1)C(=O)O)[C@@H](c1ccc(O)c(O)c1)O2)O[C@H](Cc1ccc(O)c(O)c1)C(=O)O` [X10, salvianolic acid B], the IC50 against CYP2C9 stood at 75 ± 13 µM; on CYP2C19, 19 ± 4 µM; on UGT1A6 it was 15 ± 1 µM; against UGT1A9, 3 ± 1 µM; at OATP1B1, 38 ± 3 µM; against OAT3, 31 ± 8 µM. The inhibition at 100 μmol/L at CYP2C9 (human, cDNA-expressed CYP2C9, probe MFC (75 μmol/L)) was 68 to 80%; against CYP2C19 (human, cDNA-expressed CYP2C19, probe CEC (25 μmol/L)), 68 to 80%; at UGT1A6 (human, cDNA-expressed UGT1A6, probe 4-MU (100 μmol/L), 4-MUG formed), over 90%; against UGT1A9 (human, cDNA-expressed UGT1A9, probe 4-MU (10 μmol/L), 4-MUG formed) it was over 90%. For the same compound, in the series on CYP2B6, the “mRNA-T/U ratio, CYP2B6” value is 4.0 to 9.6. Moreover, the Michaelis constant (Km) at OATP1B3 was 14 µM. The “fu-p (unbound fraction in plasma)” value in series [1] (human plasma) is 3%. For the same compound, in series [1] (setting [5]), the Cmax was 100 nM. The VSS in series [1] (setting [5]) is given as 1.28 L/kg. Further, in series [1] (setting [5]), the t1/2 was 12 min. In series [1] (human), the Major elimination route entry is listed as “Hepatobiliary excretion; also recorded: Hepatic methylation”. In addition, the “Related metabolism and transport data (substrate status)” value in [2] is given as “Highly selective OATP1B3 substrate; also recorded: COMT substrate”. In addition, in [3], the pKa is 2.8. Further, the “LogD(7.4)” value in [3] (pH 7.4) was −2.8. Also, the Membrane permeability result in series [4] was “Poor”.

These data come from publication PMC6804443 (Acta Pharmaceutica Sinica. B, 2019).
